From ChEMBL document CHEMBL1201862, “PubChem BioAssay data set” (2004)
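Five compound concentrations were applied to cells in 96-well plates for 48 hours; endpoints were derived by simple linear interpolation of the resulting dose-response curve. Here, GI50 denotes the concentration required for 50% inhibition of growth.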 The source made the active and inactive calls. Cut-off read from the data, not from the text of the source: active = GI50 up to about 1.1 µM and inactive = higher.

Key:
Experiment in all cases: NCI-60 cell line screen, 48 h
[1] = system: DLD-1
[2] = system: DMS-114
[3] = system: HOP-18
[4] = system: KM-20L2
[5] = system: LXFL 529
[6] = system: M19-MEL
[7] = system: RXF 631
[8] = system: SNB-78
[9] = system: XF498

SMILES | GI50 [1] | GI50 [2] | GI50 [3] | GI50 [4] | GI50 [5] | GI50 [6] | GI50 [7] | GI50 [8] | GI50 [9]
O=C(/C=C/c1ccccc1)NC1C=Nc2ccc(Cl)cc2NC1=O (stereo not drawn) | 20.8 µM (inactive) | 5.66 µM (inactive) | 20.7 µM (inactive) | 26 µM (inactive) | 23.9 µM (inactive) | 23 µM (inactive) | 19.5 µM (inactive) | 53.7 µM (inactive) | 13.3 µM (inactive)
N#Cc1c2c(c(N=P(c3ccccc3)(c3ccccc3)c3ccccc3)n3c1nc1ccccc13)CCCC2 | 32.8 µM (inactive) | 21.5 µM (inactive) | 25.9 µM (inactive) | 17.4 µM (inactive) | 20.6 µM (inactive) | 18 µM (inactive) | 29 µM (inactive) | 21.3 µM (inactive) | –
O=C(/C=C\c1cccc2ccccc12)c1cccc2ccccc12 | 5.43 µM (inactive) | 5.51 µM (inactive) | > 10 µM (inactive) | 9.55 µM (inactive) | 9.38 µM (inactive) | 11.4 µM (inactive) | 7.89 µM (inactive) | > 10 µM (inactive) | 7.57 µM (inactive)
CC1=N/C(=C\c2ccc([N+](=O)[O-])cc2)C(=O)O1 | > 100 µM (inactive) | > 100 µM (inactive) | > 100 µM (inactive) | > 100 µM (inactive) | > 100 µM (inactive) | > 100 µM (inactive) | > 100 µM (inactive) | > 100 µM (inactive) | –
CN(C)CC/C(=N\Nc1ccc([N+](=O)[O-])cc1)c1ccccc1 | 13.3 µM (inactive) | 5.14 µM (inactive) | 7.62 µM (inactive) | 4.33 µM (inactive) | 5.83 µM (inactive) | – | – | 4.4 µM (inactive) | –
COC(=O)N/N=C(\Cc1ccccc1)CN(C)C | > 100 µM (inactive) | > 100 µM (inactive) | – | > 100 µM (inactive) | > 100 µM (inactive) | > 100 µM (inactive) | > 100 µM (inactive) | > 100 µM (inactive) | > 100 µM (inactive)
O=C(COC(=O)c1cccc2c(=O)c3ccccc3[nH]c12)Nc1ccc(C(=O)O)cc1 | > 100 µM (inactive) | 61.8 µM (inactive) | > 100 µM (inactive) | > 100 µM (inactive) | – | > 100 µM (inactive) | > 100 µM (inactive) | 59.3 µM (inactive) | 29.6 µM (inactive)
CCOc1ccccc1NC(=O)C1=C(C)NC(C)=C(C(=O)Nc2ccccc2OCC)C1c1ccc(NC(C)=O)cc1 | 37 µM (inactive) | 40.2 µM (inactive) | – | 25.8 µM (inactive) | 47.6 µM (inactive) | 28.2 µM (inactive) | – | 40.9 µM (inactive) | 9.68 µM (inactive)
On1c(-c2ccccc2)c(-c2c(-c3ccccc3)n(O)c3ccccc23)c2ccccc21 | 54.6 µM (inactive) | 24.7 µM (inactive) | 26.1 µM (inactive) | – | 3.18 µM (inactive) | 11.2 µM (inactive) | – | 35.7 µM (inactive) | 19.8 µM (inactive)
O=C(Nc1ccccc1)N1C(c2ccccc2)=N[C@@H](c2ccccc2)[C@@H]1c1ccccc1 | 15.1 µM (inactive) | 14.7 µM (inactive) | 18.9 µM (inactive) | 18.1 µM (inactive) | 15.6 µM (inactive) | 19.5 µM (inactive) | 35.2 µM (inactive) | 33.7 µM (inactive) | –
O=P(Oc1ccc2ccccc2c1)(N1CC1)N1CC1 | 92.3 µM (inactive) | 38.4 µM (inactive) | 22.6 µM (inactive) | > 100 µM (inactive) | > 100 µM (inactive) | 13.5 µM (inactive) | – | > 100 µM (inactive) | 17.7 µM (inactive)
O=C1C2=C(C(c3ccccc3)=C1c1ccccc1)c1ccccc1C1(c3ccccc3)C2=C(O)C(c2ccccc2)=C1c1ccccc1 (stereo not drawn) | > 100 µM (inactive) | > 100 µM (inactive) | > 100 µM (inactive) | > 100 µM (inactive) | > 100 µM (inactive) | > 100 µM (inactive) | > 100 µM (inactive) | > 100 µM (inactive) | –
O=C1Oc2cc3c(c4cccc1c24)OCN(c1ccc(Cl)cc1)C3 | 5.42 µM (inactive) | 5.9 µM (inactive) | 34 µM (inactive) | – | 0.622 µM (active) | 14.4 µM (inactive) | – | > 100 µM (inactive) | 16.7 µM (inactive)
Cc1c(C(=O)C/C(=N/NC(=O)c2ccccc2)C(=O)Nc2ccc(Cl)cc2)[n+]([O-])c2ccccc2[n+]1[O-] | 75.7 µM (inactive) | 32.6 µM (inactive) | > 100 µM (inactive) | – | 84.3 µM (inactive) | – | > 100 µM (inactive) | > 100 µM (inactive) | > 100 µM (inactive)
CCN(CC)CCNC(=O)c1nn(C)c(=S)[nH]c1=S | > 100 µM (inactive) | > 100 µM (inactive) | > 100 µM (inactive) | > 100 µM (inactive) | > 100 µM (inactive) | > 100 µM (inactive) | – | > 100 µM (inactive) | > 100 µM (inactive)
CCOC(=O)NC(=O)c1cn(CCN2CCN(C(=O)CCCCCCCCCCC(=O)N3CCN(CCn4cc(C(=O)NC(=O)OCC)c(=O)[nH]c4=O)CC3)CC2)c(=O)[nH]c1=O | > 100 µM (inactive) | > 100 µM (inactive) | > 100 µM (inactive) | – | > 100 µM (inactive) | > 100 µM (inactive) | – | – | > 100 µM (inactive)
CCCCCC/C=C/CCCCCCCc1cccc(O)c1C(=O)O | 43.6 µM (inactive) | > 100 µM (inactive) | 48.4 µM (inactive) | > 100 µM (inactive) | 45.4 µM (inactive) | > 100 µM (inactive) | > 100 µM (inactive) | > 100 µM (inactive) | > 100 µM (inactive)
CCOC(OCC)C(CC)[Se]c1ccccc1[N+](=O)[O-] (stereo not drawn) | 3.1 µM (inactive) | – | 11.8 µM (inactive) | 1.96 µM (inactive) | 4.39 µM (inactive) | 4.42 µM (inactive) | – | 7.76 µM (inactive) | 2.92 µM (inactive)
CC(C)(C)CC(C)(C)c1cc2c(O)c(c1)Cc1cc(C(C)(C)CC(C)(C)C)cc(c1O)Cc1cc(C(C)(C)CC(C)(C)C)cc(c1O)Cc1cc(C(C)(C)CC(C)(C)C)cc(c1O)Cc1cc(C(C)(C)CC(C)(C)C)cc(c1O)Cc1cc(C(C)(C)CC(C)(C)C)cc(c1O)C2 | > 100 µM (inactive) | > 100 µM (inactive) | – | > 100 µM (inactive) | > 100 µM (inactive) | > 100 µM (inactive) | > 100 µM (inactive) | > 100 µM (inactive) | > 100 µM (inactive)
O=c1cc2n(c(=O)[nH]1)C1OC(C(O)C1O)[C@@H]2CCO (stereo partly drawn) | > 100 µM (inactive) | > 100 µM (inactive) | – | > 100 µM (inactive) | > 100 µM (inactive) | > 100 µM (inactive) | – | > 100 µM (inactive) | –
N#CC(NNC(=O)c1ccccc1O)c1ccccc1 (stereo not drawn) | 2.63 µM (inactive) | 0.721 µM (active) | 12.6 µM (inactive) | 22 µM (inactive) | 0.652 µM (active) | 1.32 µM (inactive) | – | 0.9 µM (active) | –
O[C@]12c3ccccc3C1CCCCC2N1CCOCC1 (stereo partly drawn) | – | > 100 µM (inactive) | > 100 µM (inactive) | > 100 µM (inactive) | > 100 µM (inactive) | > 100 µM (inactive) | – | > 100 µM (inactive) | > 100 µM (inactive)
ClCCCN1CCCCC1CCl (stereo not drawn) | > 100 µM (inactive) | 83 µM (inactive) | > 100 µM (inactive) | > 100 µM (inactive) | > 100 µM (inactive) | > 100 µM (inactive) | – | – | –
CC[n+]1c(/C=C/c2ccc(N(CCCl)CCCl)cc2)ccc2cc(I)ccc21 | 1.58 µM (inactive) | 0.607 µM (active) | 1.02 µM (active) | 1.02 µM (active) | 0.409 µM (active) | 0.608 µM (active) | 1.77 µM (inactive) | 0.895 µM (active) | –
Cc1ccc(S(=O)(=O)N/N=C/c2oc(-c3cccc([N+](=O)[O-])c3)c(-c3cccc([N+](=O)[O-])c3)c2[N+](=O)[O-])cc1 | 32.2 µM (inactive) | – | > 100 µM (inactive) | > 100 µM (inactive) | 36.7 µM (inactive) | – | 62.1 µM (inactive) | – | > 100 µM (inactive)
CC(O)C1OC(n2ccc(=O)[nH]c2=O)CC1n1cncn1 (stereo not drawn) | > 100 µM (inactive) | > 100 µM (inactive) | – | > 100 µM (inactive) | > 100 µM (inactive) | > 100 µM (inactive) | – | – | > 100 µM (inactive)
C[C@]12CC[C@H](O)CC1=CC[C@@H]1C2CC[C@]2(C)Nc3c(cnn3-c3ccccc3)CC12 (stereo partly drawn) | 3.52 µM (inactive) | 2.82 µM (inactive) | – | 1.38 µM (inactive) | 4.06 µM (inactive) | 5.35 µM (inactive) | 0.44 µM (active) | 8.2 µM (inactive) | –
CCCc1c(C(=O)OCC)[nH]c(-c2ccc(-c3[nH]c(C(=O)OCC)c(CCC)c3C(=O)OCC)s2)c1C(=O)OCC | > 100 µM (inactive) | 38.1 µM (inactive) | > 100 µM (inactive) | 72.1 µM (inactive) | 33 µM (inactive) | 52.8 µM (inactive) | – | > 100 µM (inactive) | 27.3 µM (inactive)
COC1=C(OC)C(=O)c2cc(SC)c(=O)c(SC)cc2C1=O | 28.4 µM (inactive) | 3.4 µM (inactive) | 20.2 µM (inactive) | > 100 µM (inactive) | 15.8 µM (inactive) | – | – | – | 5.14 µM (inactive)
